Tests used:
INS-1 cells (nNOS) = assay: Glucose-induced insulin secretion; assay type: cell-based; settings: 5.6 mM glucose, no IL-1β, 1 h, compounds 500 µM to 5 mM, L-NAME 5 mM
Procedure: Indeed, pancreatic β-cells are known to constitutively express the nNOS isoform, which negatively modulates glucose-induced insulin secretion.
The insulin-secreting cell line INS-1 (a gift from Prof. C. Wolheim, Geneva, Switzerland) was cultured in RPMI-1640 supplemented with 10% FCS, 100 units/mL penicillin, 100 µg/mL streptomycin, 2 mM L-glutamine, 10 mM HEPES, 1 mM sodium pyruvate, and […] 2-mercaptoethanol, according to M. Asfari et al.’s method.
The functional effects of compounds were evaluated on INS-1 cells. Cells were preincubated for 1 h at 37 °C in a Krebs–Ringer bicarbonate buffer (108 mM NaCl, 1.19 mM KH2PO4, 4.74 mM KCl, 2.54 mM CaCl2, 1.19 mM MgSO4·7H2O, and 18 mM NaHCO3) containing 2 g/L BSA in the absence of glucose. After removal of the medium, the cells were stimulated for another hour at 37°C in the same buffer in the presence of 5.6 mM glucose and the presence of increasing concentrations of L-NAME or compounds (from 500 µM to 5 mM). At the end of the incubation period, the medium was collected, and the insulin was measured using an insulin high-range assay kit (CisBio, Codolet, France). Data are expressed as means ± SEM of the experiments (indicated in the result part).

[1] = target: T1, oxygenase domain of iNOS (iNOSoxy) (Mus musculus, UniProt P29477); assay: UV-visible difference spectroscopy titration of iNOSoxy; assay type: binding; settings: UV/Vis difference spectroscopy, ± SD, three experiments; read-out: Apparent equilibrium constant Ks iNOSoxy
T1 construct: the oxygenase domain of nNOS (nNOSoxy) and iNOS (iNOSoxy); made in house; host or cells: Escherichia coli
T1 sequence (P29477 1-498 limits assumed): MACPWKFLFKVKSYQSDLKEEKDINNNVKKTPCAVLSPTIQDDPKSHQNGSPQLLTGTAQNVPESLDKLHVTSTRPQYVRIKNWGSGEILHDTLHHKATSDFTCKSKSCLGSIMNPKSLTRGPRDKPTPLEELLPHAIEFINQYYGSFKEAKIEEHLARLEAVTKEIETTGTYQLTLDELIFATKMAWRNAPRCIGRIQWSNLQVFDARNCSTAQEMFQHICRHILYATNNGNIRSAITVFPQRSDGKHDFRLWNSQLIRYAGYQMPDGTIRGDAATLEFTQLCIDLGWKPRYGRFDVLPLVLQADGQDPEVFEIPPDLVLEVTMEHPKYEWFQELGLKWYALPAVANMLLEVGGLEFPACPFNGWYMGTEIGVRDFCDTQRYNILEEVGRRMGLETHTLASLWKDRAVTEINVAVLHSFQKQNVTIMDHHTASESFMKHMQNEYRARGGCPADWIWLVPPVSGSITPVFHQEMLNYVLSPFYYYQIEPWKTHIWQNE
Text: We performed UV–visible difference spectroscopy to analyze the interaction mode of some inhibitors with the heme-active site of NOS [54]. We have studied the effects of dipeptide-like compounds 7, 17, 19, 23, and 27 and 1,2,4-oxadiazole 35 on the UV–visible spectra of the oxygenase domain of nNOS (nNOSoxy) and iNOS (iNOSoxy). As expected, when added stepwise to n- and iNOSoxy, all selected compounds elicited different spectra with a trough at ~425 nm and a peak at ~395 nm, similar to the substrate L-arginine. This profile is characteristic of type I interactions, meaning that they are bound in close proximity to the heme prosthetic group and shifted the spin state equilibrium to the pentacoordinated heme–Fe^III state. Double reverse plotting of the differences in absorbance between the peak at ~395 nm and valley at ~425 nm (ΔA395–425 nm) as a function of the concentration of the added compounds allowed calculating apparent binding constants (Ks) (Table 3). The reference inhibitor SEITU [55] tightly bound both NOS isoforms with high affinity but no selectivity. With the exception of the dipeptide-like 27 and the heterocyclic analog 35, which similarly interacted with both proteins, other compounds preferentially bound nNOSoxy over iNOSoxy with apparent affinities close to SEITU for this isoform.
Full-length recombinant rat nNOS, mouse iNOS, bovine eNOS, and the heme domains of rat brain nNOS and mouse iNOS were expressed in Escherichia coli and purified as described previously.
This study was performed as previously described.

| Kd [1] [µM] | SMILES | Effect on insulin secretion (INS-1 cells (nNOS)) |
| --- | --- | --- |
| 406 ± 97 | CCSC(=N)NCCC[C@H](N)C(=O)N[C@H]1CCCN(Cc2ccccc2)C1 [Compound 7] | dose-dependently stimulate glucose insulin secretion with better efficiency than L-NAME |
| 36.4 ± 4.6 | CCSC(=N)NCCC[C@H](N)C(=O)N[C@H]1CCCN(Cc2ccc(Cl)c(C(F)(F)F)c2)C1 [Compound 17] | dose-dependently stimulate glucose insulin secretion with better efficiency than L-NAME |
| 57.9 ± 8 | CCSC(=N)NCCC[C@H](N)C(=O)N[C@H]1CCCN(Cc2cccc(-c3cccc(C(=O)O)c3)c2)C1 [Compound 27] | dose-dependently stimulate glucose insulin secretion with better efficiency than L-NAME |
